Where a name gives a salt, the structure may show the parent alone.

Series [1] deals with T1, Na^+ /H^+ exchanger of rabbit erythrocytes (Oryctolagus cuniculus, UniProt P23791).
T1 construct: exchanger of rabbit erythrocytes; from tissue; host or cells: erythrocytes in blood of cholesterol-fed New Zealand White rabbits
The series can be described thus: Inhibition of the Na^+ /H^+ exchanger of rabbit erythrocytes (amiloride-sensitive sodium influx, flame photometry). Type of series: cell-based, rabbit (New Zealand White). To be noted: pH 7.4, 37° C., hyperosmolar salt/sucrose medium. The text has this: Inhibition of the Na^+ /H^+ exchanger of rabbit erythrocytes
New Zealand White rabbits (Ivanovas) received a standard diet containing 2% cholesterol for six weeks in order to activate the Na^+ /H^+ exchange and thus to be able to determine, by flame photomerry, the Na^+ influx into the erythrocytes via Na^+ /H^+ exchange. The blood was removed from the aural arteries and rendered incoagulable using 25 IU of potassium heparin. A part of each sample was used for the duplicate determination of the hematocrit by means of centrifugation. Aliquots of in each case 100 μl were used for measuring the initial Na^+ content of the erythrocytes.
In order to determine the amiloride-sensitive sodium influx, 100 μl of each blood sample were in each case incubated, at pH 7.4 and 37° C., in 5 ml of a hyperosmolar salt/sucrose medium (mmol/1: 140 NaCl, 3 KCl, 150 sucrose, 0.1 ouabain, 20 tris(hydroxymethyl)aminomethane). The erythrocytes were then washed three times with ice-cold MgCl2 /ouabain solution ([…]: 112 MgCl2, 0.1 ouabain) and hemolyzed in 2.0 ml of distilled water. The intracellular sodium content was determined by flame photometry.
The net influx of Na^+ was calculated from the difference between the initial sodium values and the sodium content of the erythrocytes following incubation. The amiloride-inhibitable sodium influx was calculated from the difference in the sodium content of the erythrocytes following incubation with and without amiloride 3×10^-4 mol/1. This method was also employed in the case of the compounds according to the invention.

The test system of the next series is cardiac arrhythmias. To be noted: cited from earlier work.

T1 sequence (P23791 whole entry): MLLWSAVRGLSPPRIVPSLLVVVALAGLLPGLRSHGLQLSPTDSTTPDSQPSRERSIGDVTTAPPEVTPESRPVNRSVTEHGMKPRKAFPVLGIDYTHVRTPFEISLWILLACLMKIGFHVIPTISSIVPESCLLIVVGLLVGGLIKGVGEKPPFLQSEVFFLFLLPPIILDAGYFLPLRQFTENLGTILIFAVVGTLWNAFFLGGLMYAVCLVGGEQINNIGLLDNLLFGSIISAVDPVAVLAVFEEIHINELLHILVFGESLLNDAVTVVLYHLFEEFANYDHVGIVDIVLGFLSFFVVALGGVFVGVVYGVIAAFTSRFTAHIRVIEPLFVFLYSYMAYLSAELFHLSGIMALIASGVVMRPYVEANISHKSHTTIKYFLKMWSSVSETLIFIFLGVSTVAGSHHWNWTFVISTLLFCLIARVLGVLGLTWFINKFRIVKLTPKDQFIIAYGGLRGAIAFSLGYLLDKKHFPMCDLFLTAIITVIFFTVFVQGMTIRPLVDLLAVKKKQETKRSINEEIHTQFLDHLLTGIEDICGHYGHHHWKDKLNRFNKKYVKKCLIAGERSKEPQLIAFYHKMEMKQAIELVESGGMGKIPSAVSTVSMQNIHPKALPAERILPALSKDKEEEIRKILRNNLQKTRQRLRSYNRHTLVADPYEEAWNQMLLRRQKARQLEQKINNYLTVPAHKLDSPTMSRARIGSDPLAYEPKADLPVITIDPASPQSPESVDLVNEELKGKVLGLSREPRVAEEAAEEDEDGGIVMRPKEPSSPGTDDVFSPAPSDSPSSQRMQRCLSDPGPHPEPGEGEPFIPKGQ

With `CS(=O)(=O)c1cc(C(=O)N=C(N)N)ccc1Oc1ccc(-c2ccccn2)cc1` [Example 5, 4-[4-(2-Pyridyl)phenoxy]-3-methylsulfonylbenzoylguanidine, dihydrochloride], the IC50 (usually the concentration that inhibits the measured activity by half) in series [1] amounted to 300 nM.

Take `CS(=O)(=O)c1cc(C(=O)N=C(N)N)ccc1Oc1ccc(-c2nccn2Cc2ccccc2)cc1` [Example 1, 4-(1-Benzylimidazol-2-yl)phenoxy-3-methylsulfonylhenzoylguanidine, dihydrochloride]: the IC50 in series [1] was 300 nM. Same read-out and setting: in the case of `CS(=O)(=O)c1cc(C(=O)N=C(N)N)ccc1Oc1ccc(-c2ncc[nH]2)cc1` [Example 2, 4-(Imidazol-2-yl)phenoxy-3-methylsulfonylbenzoylguanidine, dihydrochloride] it was 300 nM. As for `N=C(N)NC(=O)c1nc(Cl)c(N)nc1N` [amiloride, Amiloride], the antiarrhythmic effect entry in the series with cardiac arrhythmias (Circulation 79, 1257 to 1263 (1989)) is given as “only weakly expressed”. Moreover, the “hypotensive and saluretic side effects” value with cardiac arrhythmias (in vivo) was “accompanied by hypotensive and saluretic effects”. On to `CS(=O)(=O)c1cc(C(=O)N=C(N)N)ccc1Oc1ccc(-c2cccnc2)cc1` [Example 3, 4-[4-(3-Pyridyl)phenoxy]-3-methylsulfonylbenzoylguanidine, dihydrochloride], for which the IC50 in series [1] was determined as 200 nM.

The record behind these values is patent publication US5719169A, “Substituted benzoylguanidines, their use as a medicament or diagnostic, and medicament containing them” (priority 1993, dated 1998).
